This note sets out measurements from a melting point compilation (Tetko et al.; mined from patent text by program, amines drawn as free bases though some values may be those of a salt).

`COc1ccc(-c2sc3cc(OC)ccc3c2C(=O)O)cc1` returned a melting point of 166 to 170 °C.

In turn, `Cn1c(=N)sc2ccccc21` had a melting point of 122 °C.

The molecule `N#Cc1c(N2CCN(C(=O)c3cccs3)CC2)c2cc(F)cnc2n(Cc2cccc(F)c2)c1=O` yielded a melting point of 137 °C.

On to `CN(C)CCCN=C1CC(c2ccc(C(F)(F)F)cc2)Cc2[nH]c3ccc(Cl)cc3c(=O)c21` (stereo not given), for which the melting point is 211 to 213 °C.

The molecule `CCCCCCCCCOC1C(O)C(CO)OC1n1cnc2c(=O)[nH]c(N)nc21` (stereo not given) came in with a melting point of 258 to 259 °C.

As to `COc1cn(-c2ccc(N3CCCC(F)(F)C3)cc2F)nc(-c2ccnn2-c2ccccc2)c1=O`, the melting point was 182 to 187 °C.

On to `C#CCn1c(=O)n(C)c2ccccc21`, for which the melting point was 110 to 112 °C.

Molecule `O=C1Nc2c(F)cc(F)cc2C1c1ncnc2c1cnn2C1CCCC1` (stereo not given) displayed a melting point of more than 300 °C.

On to `Cn1ncc(C(=O)N2CCCC2)c1C(=O)Nc1ccc2nc(-c3cccnc3)nn2c1`, for which the melting point amounted to 251 °C.

Turning to `NC(=O)c1coc2ccccc2c1=O`, the melting point fell in the range of 220 to 225 °C.

Consider `CNC(=O)N(O)C(C)C#Cc1ccc(C(C)C)cc1` (stereo not given), for which the melting point is 146 to 147 °C.

As to `CCOC(=O)C(CC)Oc1ccccc1C(C)=O` (stereo not given), the melting point was in the range of 43 to 45 °C.

`Cc1nc2scc(-c3ccccc3)n2c(=O)c1CCN1CCC(c2noc3cc(F)ccc23)CC1` returned a melting point of 76 to 91 °C.

For `COC(=O)C=C(C(=O)OC)N1CCC23C=CC(O)CC2Oc2c(OC)ccc(c23)C1` (stereo not given), the melting point lay in the range of 121 to 122 °C.

In turn, `CC(=O)OCOC(=O)COC(=C1C(=O)N(C(N)=O)c2cc(Cl)c(F)cc21)c1cccs1` yielded a melting point of 176 to 177 °C.

With `Cc1ccccc1C(=O)NCN1CCN(c2cccc(C#N)c2)CC1`, the melting point fell in the range of 156 to 159 °C.

`CC(C)Cn1cc(C(=O)O)c2ccc(Cl)cc21` returned a melting point of 205 to 206 °C.

In the case of `Cc1cc(Cn2cccn2)cc2c1Cc1c(-c3ccsc3)n[nH]c1-2`, the melting point lay in the range of 271 to 274 °C.

`COc1ccc(C(=O)c2c(Cc3ccccc3)oc3ccccc23)cc1` yielded a melting point of 84 to 85 °C.

`Cc1cccc(CC(NC(=O)C(c2ccccc2)c2ccccc2)C(=O)NC(C#N)CCOc2cccc(C(=O)O)c2)c1` (stereo not given) yielded a melting point of 169 to 170 °C.

Molecule `Oc1ccc(OCC(O)CNCCNc2cccc3[nH]ncc23)cc1` (stereo not given) yielded a melting point of 151 to 153 °C.

`CCC(O)c1cc2c(cc1C)OCO2` (stereo not given) displayed a melting point of 71 to 72 °C.

`COc1ccc2c(c1Cl)c(CC(=O)O)c(C)n2C(=O)c1ccc(Cl)s1` gave a melting point of 169 °C.

The molecule `CCCOC(=O)c1cc(=O)c2c(OCc3ccc(OCc4ccc5ccccc5n4)cc3)c(Cl)ccc2o1` gave a melting point of 173 to 174 °C.

In turn, `Brc1cc(-c2ccccc2)on1` had a melting point of 71 to 73 °C.

In turn, `CCOC(=O)C1Cn2c(nc3c(cnn3C)c2=O)S1` (stereo not given) displayed a melting point of 159 °C.

`CC1=CCC2(C)C(CCC3C4CCC(O)C4(C)CCC32)C1` (stereo not given) had a melting point of 128 to 130 °C.

For `C#CCN(C(CCn1c(=O)[nH]cc(C(F)(F)F)c1=O)C(=O)NO)S(=O)(=O)c1ccc(Oc2ccccc2)cc1` (stereo not given), the melting point lay within 170 to 171 °C.

In turn, `CC1(C)C(C=C(Cl)Cl)C1C(=O)O` (stereo not given) came in with a melting point of 86 °C.

Molecule `CNC(=O)N(C)c1nnc(SCC(=O)OC(C)(C)C)s1` returned a melting point of 174 °C.

The molecule `COc1cccc(NC(C)=O)c1` registered a melting point of 81 to 82 °C.

The molecule `CCCCn1ncc(/C=C(\Cc2cc3c(cc2OC)CCO3)C(=O)O)c1-c1ccc(Cl)cc1OCc1ccccc1C(=O)O` showed a melting point of 116 to 118 °C.

`CN1CCN(C(=O)[C@H]2CC[C@H](c3[nH]nc4c3C(=O)c3c(NC(=O)NN5CCOCC5)cccc3-4)CC2)CC1`: the melting point was 228 to 230 °C.

The molecule `CCOC(=O)CCc1cc(OCOC)nn1Cc1ccc(Cl)cc1Cl` registered a melting point of 47 to 49 °C.

Consider `CC(C)c1ccc(C(=O)C(c2ccccc2)C2CCCCC2)c(C(C)C)c1OS(N)(=O)=O` (stereo not given), for which the melting point lay in the range of 127 to 137 °C.
